Earlier results on three compounds are cited in US20200367542A1, “AROMA COMPOSITION” (SYMRISE AG, priority 2017, published 2020).

For data set [1] the following is noted: J. Chem. Senses 1979, 4(1), 35-47.
The conditions of data set [2]: purity>90%, in soft drinks.

On to `COc1ccc(CCC(=O)c2ccccc2O)cc1O` [dihydrochalcone (2)], for which the “Taste described in the publication” value in data set [1] is recorded as “intensively sweet tasting”.
On to `COc1ccc(CCC(=O)c2c(O)cccc2O)cc1O` [dihydrochalcone (3)], for which the “Taste described in the publication” value in data set [1] is reported as “tasteless”.
Turning to `C=C1C[C@@]23CC[C@H]4[C@@](C)(CCC[C@@]4(C)C(=O)O[C@@H]4O[C@H](CO)[C@@H](O)[C@H](O)[C@H]4O)[C@@H]2CC[C@]1(O[C@@H]1O[C@H](CO)[C@@H](O)[C@H](O[C@@H]2O[C@H](CO)[C@@H](O)[C@H](O)[C@H]2O)[C@H]1O[C@@H]1O[C@H](CO)[C@@H](O)[C@H](O)[C@H]1O)C3` [rebaudioside A], the “Concentration to achieve a sweetness corresponding to a concentration of sucrose of 10% by weight” value in data set [2] was 400-600 ppm.
